Reference: US20250230193A1, “CYCLIC COMPOUND HAVING SELECTIVE KRAS INHIBITORY EFFECT ON HRAS AND NRAS” (CHUGAI SEIYAKU KABUSHIKI KAISHA, priority 2022, published 2025)
Where a SMILES comes first, the peptide text is derived from it. Bridges are numbered along the chain shown (N, C = ends). [ ]: non-standard residue; d: D form. The star is where a group is joined. hPhe(3-Cl-4-CF3) = N[C@@H](CCc1ccc(C(F)(F)F)c(Cl)c1)C(=O)O; NPrPhe(4-CF3) = CCCN[C@@H](Cc1ccc(C(F)(F)F)cc1)C(=O)O; NMeGly(cPent) = CN[C@H](C(=O)O)C1CCCC1; Pro(4,4-F2) = O=C(O)[C@@H]1CC(F)(F)CN1; NEtPhe = CCN[C@@H](Cc1ccccc1)C(=O)O; NMeD = CN[C@@H](CC(=O)O)C(=O)O; NMeL = CN[C@@H](CC(C)C)C(=O)O; Morpholide = C1CN(*)CCO1; Ac5c = NC1(C(=O)O)CCCC1; NEtG = CCNCC(=O)O; Sar = CNCC(=O)O

Tests used:
[1] = molecular target: GDP-bound NRAS wild-type protein (Homo sapiens, UniProt P01111); assay: Binding to NRAS by surface plasmon resonance (SPR), Single Cycle Kinetics
Sequence of GDP-bound NRAS wild-type protein (P01111 whole entry): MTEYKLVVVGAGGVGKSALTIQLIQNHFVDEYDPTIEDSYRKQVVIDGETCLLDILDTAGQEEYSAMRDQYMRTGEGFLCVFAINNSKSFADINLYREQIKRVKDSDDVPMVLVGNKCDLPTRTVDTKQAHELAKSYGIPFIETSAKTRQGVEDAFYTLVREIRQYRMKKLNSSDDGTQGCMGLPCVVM

[2] = molecular target: GDP-bound HRAS wild-type protein (Homo sapiens, UniProt P01112); assay: Binding to HRAS by surface plasmon resonance (SPR), Single Cycle Kinetics
Sequence of GDP-bound HRAS wild-type protein (P01112 whole entry): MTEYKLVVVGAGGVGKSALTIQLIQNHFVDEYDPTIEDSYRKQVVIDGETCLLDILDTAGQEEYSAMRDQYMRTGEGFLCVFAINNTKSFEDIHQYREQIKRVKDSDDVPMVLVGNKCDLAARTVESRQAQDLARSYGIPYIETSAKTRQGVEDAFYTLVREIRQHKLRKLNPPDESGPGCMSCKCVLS

[3] = KD ratio, GDP-bound NRAS wild-type vs GDP-bound KRAS wild-type, SPR
[4] = KD ratio, GDP-bound HRAS wild-type vs GDP-bound KRAS wild-type, SPR
[5] = SPR, GDP-bound NRAS wild-type vs GDP-bound KRAS wild-type
[6] = SPR, GDP-bound HRAS wild-type vs GDP-bound KRAS wild-type
[7] = KD ratio NRAS/KRAS, SPR, GDP-bound wild-type proteins
[8] = KD ratio HRAS/KRAS, SPR, GDP-bound wild-type proteins

CCO[C@@H]1C[C@H]2C(=O)NC3(CCC3)C(=O)N(C)[C@@H](C3CCCC3)C(=O)N(C)[C@H](C(=O)N(C)C)CC(=O)N(C)[C@@H](CC)C(=O)N[C@@H]([C@@H](C)CC)C(=O)N3CC[C@H]3C(=O)N(C)[C@H]3C/C=C\CCN(C3=O)[C@@H](Cc3ccc(C(F)(F)F)cc3)C(=O)N(C)CC(=O)N[C@@H](CCc3cc(F)c(C(F)(F)F)c(F)c3)C(=O)N2C1 [PP0984]
NRAS/KRAS (ratio of KD value with respect to NRAS to KD value with respect to KRAS) [1, 3]: A (a compound having 10 or more and less than 20 is denoted as A) | HRAS/KRAS (ratio of KD value with respect to HRAS to KD value with respect to KRAS) [2, 4]: A (a compound having 10 or more and less than 20 is denoted as A)

CCO[C@@H]1C[C@H]2C(=O)NC3(CC(C)(C)C3)C(=O)N(C)[C@@H](C(CC)CC)C(=O)N(C)[C@H](C(=O)N3CCCC3)CC(=O)N(C)[C@@H](COC)C(=O)N[C@@H]([C@@H](C)CC)C(=O)N(C)CC(=O)N(C)[C@H]3C/C=C\CCN(C3=O)[C@@H](Cc3ccc(C)cc3)C(=O)N(C)CC(=O)N[C@@H](CCc3cc(F)c(C(F)(F)F)c(F)c3)C(=O)N2C1 [PP2139]
NRAS/KRAS (ratio of KD value with respect to NRAS to KD value with respect to KRAS) [1, 5]: AA (a compound having 20 or more is denoted as AA) | HRAS/KRAS (ratio of KD value with respect to HRAS to KD value with respect to KRAS) [2, 6]: A (a compound having 10 or more and less than 20 is denoted as A)

CCC[C@H]1C(=O)N[C@@H]([C@@H](C)CC)C(=O)N2CCC[C@H]2C(=O)N(C)[C@H]2C/C=C\CCN(C2=O)[C@@H](Cc2ccc(C)cc2)C(=O)N(C)CC(=O)N[C@@H](CCc2cc(F)c(C(F)(F)F)c(F)c2)C(=O)N2C[C@H](OCC)C[C@H]2C(=O)N(C)C2(CCC2)C(=O)N(C)[C@@H](C2CCCC2)C(=O)N(C)[C@H](C(=O)N2CCCCC2)CC(=O)N1C [PP3115, (1S,4S,10S,13S,17S,20S,26S,28R,32S,38S,42Z)-20-cyclopentyl-32-[2-[3,5-difluoro-4-(trifluoromethyl)phenyl]ethyl]-28-ethoxy-2,14,18,21,24,36-hexamethyl-10-[(1S)-1-methylpropyl]-17-(piperidine-1-carbonyl)-13-propyl-38-(p-tolylmethyl)spiro[2,8,11,14,18,21,24,30,33,36,39-undecazatetracyclo[37.5.1.0^4,8.0^26,30]pentatetracont-42-ene-23,1′-cyclobutane]-3,9,12,15,19,22,25,31,34,37,45-undecone]
NRAS/KRAS (ratio of KD value with respect to GDP-bound NRAS wild-type protein to KD value with respect to KRAS) [1, 7]: A (a compound having 10 or more and less than 20 is denoted as A) | HRAS/KRAS (ratio of KD value with respect to GDP-bound HRAS wild-type protein to KD value with respect to KRAS) [2, 8]: B (a compound having 3 or more and less than 10 is denoted as B)

CCC[C@H]1C(=O)N[C@@H]([C@@H](C)CC)C(=O)N(C)CC(=O)N(C)[C@H]2C/C=C\CCN(C2=O)[C@@H](Cc2ccc(C)cc2)C(=O)N(C)CC(=O)N[C@@H](CCc2ccc(C(F)(F)F)c(OC)c2)C(=O)N2C[C@H](OCC)C[C@H]2C(=O)NC2(CC(C)(C)C2)C(=O)N(C)[C@@H]([C@@H](C)CC)C(=O)N(C)[C@H](C(=O)N(C)C)CC(=O)N1C [PP3006]
NRAS/KRAS (ratio of KD value with respect to GDP-bound NRAS wild-type protein to KD value with respect to KRAS) [1, 7]: A (a compound having 10 or more and less than 20 is denoted as A) | HRAS/KRAS (ratio of KD value with respect to GDP-bound HRAS wild-type protein to KD value with respect to KRAS) [2, 8]: A (a compound having 10 or more and less than 20 is denoted as A)

CCCO[C@@H]1CCN2C(=O)[C@H](CCc3cc(F)c(C(F)(F)F)c(F)c3)NC(=O)CN(C)C(=O)[C@H](Cc3ccc(C(F)(F)F)cc3)N3CCCC[C@@H](C3=O)N(C)C(=O)CN(C)C(=O)[C@H]([C@@H](C)CC)NC(=O)[C@H](CC(C)C)N(C)C(=O)C[C@@H](C(=O)N3CCOCC3)N(C)C(=O)[C@H](C3CCCC3)N(C)C(=O)C3(CCC3)NC(=O)[C@H]12 [PP1080]
NRAS/KRAS (ratio of KD value with respect to NRAS to KD value with respect to KRAS) [1, 3]: B (a compound having 3 or more and less than 10 is denoted as B) | HRAS/KRAS (ratio of KD value with respect to HRAS to KD value with respect to KRAS) [2, 4]: B (a compound having 3 or more and less than 10 is denoted as B)

CCO[C@@H]1C[C@H]2C(=O)NC3(CC(C)(C)C3)C(=O)N(C)[C@@H](C3CCCC3)C(=O)N(C)[C@H](C(=O)N(C)C)CC(=O)N(C)[C@@H](C)C(=O)N[C@@H]([C@@H](C)CC)C(=O)N(C)CC(=O)N(C)[C@H]3C/C=C\CCN(C3=O)[C@@H](Cc3ccc(C(F)(F)F)cc3)C(=O)N(C)CC(=O)N[C@@H](CCc3cc(F)c(C(F)(F)F)c(F)c3)C(=O)N2C1 [PP1641]
NRAS/KRAS (ratio of KD value for NRAS to KD value for KRAS) [1, 3]: A (a compound having 10 or more and less than 20 is denoted as A) | HRAS/KRAS (ratio of KD value for HRAS to KD value for KRAS) [2, 4]: A (a compound having 10 or more and less than 20 is denoted as A)

CCCN(C)C(=O)[C@@H]1CC(=O)N(C)[C@@H](CC)C(=O)N[C@@H]([C@@H](C)CC)C(=O)N(C)CC(=O)N(C)[C@H]2C/C=C\CCN(C2=O)[C@@H](Cc2ccc(C(F)(F)F)cc2)C(=O)N(C)CC(=O)N[C@@H](CCc2cc(F)c(C(F)(F)F)c(F)c2)C(=O)N2C[C@H](OCC3CC3)C[C@H]2C(=O)NC2(CCC2)C(=O)N(C)[C@@H](C2CCCC2)C(=O)N1C [PP2913]
NRAS/KRAS (ratio of KD value with respect to GDP-bound NRAS wild-type protein to KD value with respect to KRAS) ([1]; KD ratio NRAS/KRAS, class symbols): A (a compound having 10 or more and less than 20 is denoted as A) | HRAS/KRAS (ratio of KD value with respect to GDP-bound HRAS wild-type protein to KD value with respect to KRAS) ([2]; KD ratio HRAS/KRAS, class symbols): A (a compound having 10 or more and less than 20 is denoted as A)

CCO[C@@H]1C[C@H]2C(=O)NC3(CCC3)C(=O)N(C)[C@@H](C3CCCC3)C(=O)N(C)[C@H](C(=O)N3CCOCC3)CC(=O)N(C)[C@@H](Cc3ccccc3C)C(=O)N[C@@H]([C@@H](C)CC)C(=O)N(C)CC(=O)N(C)[C@H]3CCCCCN(C3=O)[C@@H](Cc3ccc(C(F)(F)F)cc3)C(=O)N(C)CC(=O)N[C@@H](CCc3cc(F)c(C(F)(F)F)c(F)c3)C(=O)N2C1 [PP0931]
NRAS/KRAS (ratio of KD value with respect to NRAS to KD value with respect to KRAS) [1, 3]: A (a compound having 10 or more and less than 20 is denoted as A) | HRAS/KRAS (ratio of KD value with respect to HRAS to KD value with respect to KRAS) [2, 4]: B (a compound having 3 or more and less than 10 is denoted as B)

CCO[C@@H]1C[C@H]2C(=O)NC3(CCC3)C(=O)N(C)[C@@H](C3CCCC3)C(=O)N(C)[C@H](C(=O)N(C)C)CC(=O)N(C)[C@@H](CC)C(=O)N[C@@H]([C@@H](C)CC)C(=O)N(C)CC(=O)N(C)[C@H]3CCCCN(C3=O)[C@@H](Cc3ccc(C(F)(F)F)cc3)C(=O)N(C)CC(=O)N[C@@H](CCc3cc(Cl)c(Cl)c(Cl)c3)C(=O)N2C1 [PP0988]
NRAS/KRAS (ratio of KD value with respect to NRAS to KD value with respect to KRAS) [1, 3]: C (A compound having a KD ratio of 0.1 or more and less than 3 is denoted as C) | HRAS/KRAS (ratio of KD value with respect to HRAS to KD value with respect to KRAS) [2, 4]: B (a compound having 3 or more and less than 10 is denoted as B)

CC[C@H](C)[C@@H]1NC(=O)[C@H](CC(C)C)N(C)C(=O)C[C@@H](C(=O)N2CCOCC2)N(C)C(=O)[C@H](C2CCCC2)N(C)C(=O)C2(CCCC2)NC(=O)[C@@H]2CCCN2C(=O)[C@H](CCc2ccc(C(F)(F)F)c(Cl)c2)NC(=O)CN(C)C(=O)[C@H](Cc2ccccc2)N(CC)C(=O)CN(C)C(=O)CN(C)C1=O [PP0210] ([NMeL]I[Sar][Sar][NEtPhe][Sar][hPhe(3-Cl-4-CF3)]P[Ac5c][NMeGly(cPent)][NMeD]-Morpholide; lactam N-11)
NRAS/KRAS (ratio of KD for GDP-bound NRAS wild-type to KD for KRAS) ([1]; KD ratio NRAS/KRAS, SPR): C (A compound having a KD ratio of 0.1 or more and less than 3 is denoted as C) | HRAS/KRAS (ratio of KD for GDP-bound HRAS wild-type to KD for KRAS) ([2]; KD ratio HRAS/KRAS, SPR): C (A compound having a KD ratio of 0.1 or more and less than 3 is denoted as C)

CCCN1C(=O)CN(C)C(=O)CN(CC)C(=O)[C@H]([C@@H](C)CC)NC(=O)[C@H](CC(C)C)N(C)C(=O)C[C@@H](C(=O)N(C)C)N(C)C(=O)[C@H](C2CCCC2)N(C)C(=O)C2(CCCC2)NC(=O)[C@@H]2CC(F)(F)CN2C(=O)[C@H](CCc2ccc(C(F)(F)F)c(Cl)c2)NC(=O)CN(C)C(=O)[C@@H]1Cc1ccc(C(F)(F)F)cc1 [PP0425] ([NMeL]I[NEtG][Sar][NPrPhe(4-CF3)][Sar][hPhe(3-Cl-4-CF3)][Pro(4,4-F2)][Ac5c][NMeGly(cPent)][NMeD]-NMe2; lactam N-11)
NRAS/KRAS (ratio of KD value with respect to GDP-bound NRAS wild-type protein to KD value with respect to KRAS) ([1]; KD ratio NRAS/KRAS, SPR): B (a compound having 3 or more and less than 10 is denoted as B) | HRAS/KRAS (ratio of KD value with respect to GDP-bound HRAS wild-type protein to KD value with respect to KRAS) ([2]; KD ratio HRAS/KRAS, SPR): C (A compound having a KD ratio of 0.1 or more and less than 3 is denoted as C)

C=CC[C@H]1C(=O)N[C@@H]([C@@H](C)CC)C(=O)N(C)CC(=O)N(C)[C@H]2CCCCCN(C2=O)[C@@H](Cc2ccc(C(F)(F)F)cc2)C(=O)N(C)CC(=O)N[C@@H](CCc2cc(F)c(C(F)(F)F)c(F)c2)C(=O)N2C[C@H](OCC)C[C@H]2C(=O)N[C@](C)(CC=C)C(=O)N(C)[C@@H](C2CCCC2)C(=O)N(C)[C@H](C(=O)N2CCOCC2)CC(=O)N1C [PP0878]
NRAS/KRAS (ratio of KD value with respect to NRAS to KD value with respect to KRAS) [1, 3]: B (a compound having 3 or more and less than 10 is denoted as B) | HRAS/KRAS (ratio of KD value with respect to HRAS to KD value with respect to KRAS) [2, 4]: B (a compound having 3 or more and less than 10 is denoted as B)

CCO[C@@H]1C[C@H]2C(=O)NC3(CCCC3)C(=O)N(C)[C@@H](C3CCCC3)C(=O)N(C)[C@H](C(=O)N(C)C)CC(=O)N(C)[C@@H](CC(C)C)C(=O)N[C@@H]([C@@H](C)CC)C(=O)N(C)CC(=O)N(C)[C@H]3C/C=C\CCN(C3=O)[C@@H](Cc3ccc(C)cc3)C(=O)N(C)CC(=O)N[C@@H](CCc3ccc(C(F)(F)F)c(Cl)c3)C(=O)N2C1 [PP2195]
NRAS/KRAS (ratio of KD value with respect to NRAS to KD value with respect to KRAS) [1, 5]: A (a compound having 10 or more and less than 20 is denoted as A) | HRAS/KRAS (ratio of KD value with respect to HRAS to KD value with respect to KRAS) [2, 6]: A (a compound having 10 or more and less than 20 is denoted as A)
